These results are taken from patent publication US12304916B2, “Thienopyridinyl and thiazolopyridinyl compounds useful as IRAK4 inhibitors” (BRISTOL-MYERS SQUIBB COMPANY, priority 2019, dated 2025).

Broadly, the pIC50 is the IC50 on a negative log10 scale, so that one unit is a factor of ten.

pIC50: −log10 of the molar value.

IRAK4, sequence (Q9NWZ3 whole entry, species assumed): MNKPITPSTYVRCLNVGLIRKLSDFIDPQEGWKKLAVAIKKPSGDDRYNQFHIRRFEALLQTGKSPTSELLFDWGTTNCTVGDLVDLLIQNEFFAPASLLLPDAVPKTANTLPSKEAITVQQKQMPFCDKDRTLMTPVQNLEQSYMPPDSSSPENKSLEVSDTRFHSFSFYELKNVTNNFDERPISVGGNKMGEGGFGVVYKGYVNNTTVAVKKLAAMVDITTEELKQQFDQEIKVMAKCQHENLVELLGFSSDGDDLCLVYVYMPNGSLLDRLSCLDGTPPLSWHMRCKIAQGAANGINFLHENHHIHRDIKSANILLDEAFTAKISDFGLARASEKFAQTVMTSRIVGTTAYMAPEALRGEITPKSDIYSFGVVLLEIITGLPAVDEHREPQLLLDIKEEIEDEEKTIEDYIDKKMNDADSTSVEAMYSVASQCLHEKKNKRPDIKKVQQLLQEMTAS

This test addresses IRAK4 (Homo sapiens (Human), UniProt Q9NWZ3). The experiment in a line: IRAK4 Inhibition Assay. It counts as biochemical. Conditions: ATP 500 μM; IRAK4 0.6 nM; 60 min at room temperature. The procedure: The assays were performed in U-bottom 384-well plates. The final assay volume was 30 μL prepared from 15 μL additions of enzyme and substrates (fluoresceinated peptide and ATP) and test compounds in assay buffer (20 mM HEPES pH 7.2, 10 mM MgCl2, 0.015% Brij 35 and 4 mM DTT). The reaction was initiated by the combination of IRAK4 with substrates and test compounds. The reaction mixture was incubated at room temperature for 60 min. and terminated by adding 45 μL of 35 mM EDTA to each sample. The reaction mixture was analyzed on the Caliper LABCHIP® 3000 (Caliper, Hopkinton, MA) by electrophoretic separation of the fluorescent substrate and phosphorylated product. Inhibition data were calculated by comparison to no enzyme control reactions for 100% inhibition and vehicle-only reactions for 0% inhibition. The final concentrations of reagents in the assays are ATP, 500 μM; FL-IPTSPITTTYFFFKKK peptide 1.5 μM; IRAK4, 0.6 nM; and DMSO, 1.6%.
On to `CC(C)(O)[C@H](F)CNC(=O)c1cnc2sc(-c3ccccc3)nc2c1NC1CC1` [Example 1, (R)-7-(cyclopropylamino)-N-(2-fluoro-3-hydroxy-3-methylbutyl)-2-phenylthiazolo[5,4-b]pyridine-6-carboxamide], for which the pIC50 is 7.40.

In the case of `CC(C)Nc1c(C(=O)NC[C@@H](F)C(C)(C)O)cnc2sc(-c3ccccc3)nc12` [Example 2, (R)-N-(2-fluoro-3-hydroxy-3-methylbutyl)-7-(isopropylamino)-2-phenylthiazolo[5,4-b]pyridine-6-carboxamide], the pIC50 is 7.81.

As for `CC(C)(O)[C@H](F)CNC(=O)c1cnc2sc(-c3ccccc3)nc2c1NC1CCCC1` [Example 3, (R)-7-(cyclopentylamino)-N-(2-fluoro-3-hydroxy-3-methylbutyl)-2-phenylthiazolo[5,4-b]pyridine-6-carboxamide], the pIC50 is 7.47.

As for `CC(C)(O)[C@H](F)CNC(=O)c1cnc2sc(-c3ccccc3)nc2c1NC1CCOCC1` [Example 4, (R)-N-(2-fluoro-3-hydroxy-3-methylbutyl)-2-phenyl-7-((tetrahydro-2H-pyran-4-yl)amino)thiazolo[5,4-b]pyridine-6-carboxamide], the pIC50 is 8.10.

On to `CCNc1c(C(=O)NC[C@@H](F)C(C)(C)O)cnc2sc(-c3ccccc3)nc12` [Example 5, (R)-7-(ethylamino)-N-(2-fluoro-3-hydroxy-3-methylbutyl)-2-phenylthiazolo[5,4-b]pyridine-6-carboxamide], for which the pIC50 was 7.34.

With `C[C@H](CO)Nc1c(C(=O)NC[C@@H](F)C(C)(C)O)cnc2sc(-c3ccccc3)nc12` [Example 6, N-((R)-2-fluoro-3-hydroxy-3-methylbutyl)-7-(((R)-1-hydroxypropan-2-yl)amino)-2-phenylthiazolo[5,4-b]pyridine-6-carboxamide], the negative-log IC50 (pIC50) was 7.40.

As to `C[C@H](CO)Nc1c(C(=O)NCCC(C)(C)O)cnc2sc(-c3ccccc3)nc12` [Example 7, (R)-N-(3-hydroxy-3-methylbutyl)-7-((1-hydroxypropan-2-yl)amino)-2-phenylthiazolo[5,4-b]pyridine-6-carboxamide], the negative logarithm of the IC50 (pIC50) is 6.77.

On to `C[C@H](CO)Nc1c(C(=O)NCCCN2CCOCC2)cnc2sc(-c3ccccc3)nc12` [Example 8, (R)-7-((1-hydroxypropan-2-yl)amino)-N-(3-morpholinopropyl)-2-phenylthiazolo[5,4-b]pyridine-6-carboxamide], for which the negative-log IC50 (pIC50) was 6.32.

Consider `C[C@H](CO)Nc1c(C(=O)NCCC#N)cnc2sc(-c3ccccc3)nc12` [Example 9, (R)-N-(2-cyanoethyl)-7-((1-hydroxypropan-2-yl)amino)-2-phenylthiazolo[5,4-b]pyridine-6-carboxamide], for which the pIC50 was 6.36.

In the case of `C[C@H](CO)Nc1c(C(=O)NCCS(C)(=O)=O)cnc2sc(-c3ccccc3)nc12` [Example 10, (R)-7-((1-hydroxypropan-2-yl)amino)-N-(2-(methylsulfonyl)ethyl)-2-phenylthiazolo[5,4-b] pyridine-6-carboxamide], the pIC50 was 6.13.

Regarding `CC(C)Nc1c(C(=O)NC[C@@H](F)C(C)(C)O)cnc2sc(-c3cccnc3)nc12` [Example 11, (R)-N-(2-fluoro-3-hydroxy-3-methylbutyl)-7-(isopropylamino)-2-(pyridin-3-yl)thiazolo[5,4-b]pyridine-6-carboxamide], the negative-log IC50 (pIC50) is 7.92.

For `CC(C)(O)CCNC(=O)c1cnc2sc(-c3cccnc3)nc2c1NC1CCOCC1` [Example 12, N-(3-hydroxy-3-methylbutyl)-2-(pyridin-3-yl)-7-((tetrahydro-2H-pyran-4-yl)amino) thiazolo[5,4-b]pyridine-6-carboxamide], the negative logarithm of the IC50 (pIC50) is 6.78.

As for `O=C(NCCN1CCC(O)CC1)c1cnc2sc(-c3cccnc3)nc2c1NC1CCOCC1` [Example 13, N-(2-(4-hydroxypiperidin-1-yl)ethyl)-2-(pyridin-3-yl)-7-((tetrahydro-2H-pyran-4-yl)amino)thiazolo[5,4-b]pyridine-6-carboxamide], the negative logarithm of the IC50 (pIC50) is 6.29.

For the compound `CC(C)(O)[C@H](F)CNC(=O)c1cnc2sc(-c3cccnc3)nc2c1NC1CCOCC1` [Example 14, (R)-N-(2-fluoro-3-hydroxy-3-methylbutyl)-2-(pyridin-3-yl)-7-((tetrahydro-2H-pyran-4-yl)amino)thiazolo[5,4-b]pyridine-6-carboxamide], the pIC50 was 7.40.

As for `CC(C)Nc1c(C(=O)NC[C@@H](F)C(C)(C)O)cnc2sc(Nc3ccc(-n4cccn4)cc3)nc12` [Example 15, (R)-2-((4-(1H-pyrazol-1-yl)phenyl)amino)-N-(2-fluoro-3-hydroxy-3-methylbutyl)-7-(isopropylamino)thiazolo[5,4-b]pyridine-6-carboxamide], the pIC50 was 5.62.

For `CC(C)Nc1c(C(=O)NC[C@@H](F)C(C)(C)O)cnc2sc(Nc3cccnc3)nc12` [Example 16, (R)-N-(2-fluoro-3-hydroxy-3-methylbutyl)-7-(isopropylamino)-2-(pyridin-3-ylamino)thiazolo[5,4-b]pyridine-6-carboxamide], the pIC50 was 6.91.

As to `CC(C)Nc1c(C(=O)NC[C@@H](F)C(C)(C)O)cnc2sc(Nc3ccc(S(C)(=O)=O)cc3)nc12` [Example 17, (R)-N-(2-fluoro-3-hydroxy-3-methylbutyl)-7-(isopropylamino)-2-((4-(methylsulfonyl)phenyl)amino)thiazolo[5,4-b]pyridine-6-carboxamide], the negative logarithm of the IC50 (pIC50) was 6.10.

On to `CC(C)Nc1c(C(=O)NCCC(F)(F)F)cnc2sc(-c3cccnc3)nc12` [Example 18, 7-(isopropylamino)-2-(pyridin-3-yl)-N-(3,3,3-trifluoropropyl) thiazolo[5,4-b]pyridine-6-carboxamide], for which the negative logarithm of the IC50 (pIC50) is 6.49.

Consider `CC(C)Nc1c(C(=O)NCCC2CC2)cnc2sc(-c3cccnc3)nc12` [Example 19, N-(2-cyclopropylethyl)-7-(isopropylamino)-2-(pyridin-3-yl)thiazolo[5,4-b]pyridine-6-carboxamide], for which the negative logarithm of the IC50 (pIC50) is 7.14.

Consider `CC(=O)O[C@H]1CC[C@H](NC(=O)c2cnc3sc(-c4cccnc4)nc3c2NC(C)C)CC1` [Example 20, (1r,4r)-4-(7-(isopropylamino)-2-(pyridin-3-yl)thiazolo[5,4-b]pyridine-6-carboxamido)cyclohexyl acetate], for which the negative-log IC50 (pIC50) is 7.91.

Consider `CC(C)Nc1c(C(=O)NC[C@@H](F)C(C)(C)O)cnc2sc(-c3ccc4nccn4c3)cc12` [Example 26, (R)-N-(2-fluoro-3-hydroxy-3-methylbutyl)-2-(imidazo[1,2-a]pyridin-6-yl)-4-(isopropylamino)thieno[2,3-b]pyridine-5-carboxamide], for which the pIC50 was 7.56.

As for `CC(C)Nc1c(C(=O)NC[C@@H](F)C(C)(C)O)cnc2sc(-c3c[nH]c4ncc(F)cc34)cc12` [Example 28, (R)-2-(5-fluoro-1H-pyrrolo[2,3-b]pyridin-3-yl)-N-(2-fluoro-3-hydroxy-3-methylbutyl)-4-(isopropylamino)thieno[2,3-b]pyridine-5-carboxamide], the pIC50 is 7.12.

Regarding `CC(C)CCNC(=O)c1cnc2sc(-c3cccnc3)cc2c1NC(C)C` [Example 31, N-isopentyl-4-(isopropylamino)-2-(pyridin-3-yl) thieno[2,3-b]pyridine-5-carboxamide], the negative logarithm of the IC50 (pIC50) is 7.45.

`CC(C)CCNC(=O)c1cnc2sc(-c3ccnnc3)cc2c1NC(C)C` [Example 33, N-isopentyl-4-(isopropylamino)-2-(pyridazin-4-yl)thieno[2,3-b]pyridine-5-carboxamide]: the negative-log IC50 (pIC50) is 7.54.

As for `COCCNC(=O)c1cnc2sc(-c3cncs3)cc2c1NC(C)C` [Example 34, 4-(isopropylamino)-N-(2-methoxyethyl)-2-(thiazol-5-yl)thieno[2,3-b]pyridine-5-carboxamide], the pIC50 was 7.52.

With `Cc1cc(CNC(=O)c2cnc3sc(-c4cncs4)cc3c2NC(C)C)on1` [Example 35, 4-(isopropylamino)-N-((3-methylisoxazol-5-yl)methyl)-2-(thiazol-5-yl)thieno[2,3-b]pyridine-5-carboxamide], the pIC50 is 7.22.

Take `CC(C)Nc1c(C(=O)N[C@H]2CC[C@H](O)CC2)cnc2sc(-c3cncs3)cc12` [Example 36, N-((1r,4r)-4-hydroxycyclohexyl)-4-(isopropylamino)-2-(thiazol-5-yl)thieno[2,3-b]pyridine-5-carboxamide]: the negative-log IC50 (pIC50) is 7.69.

Take `CC(C)Nc1c(C(=O)NCCC2(CO)CC2)cnc2sc(-c3cncs3)cc12` [Example 37, N-(2-(1-(hydroxymethyl)cyclopropyl)ethyl)-4-(isopropylamino)-2-(thiazol-5-yl)thieno[2,3-b]pyridine-5-carboxamide]: the pIC50 was 6.42.

In the case of `CC(C)Nc1c(C(=O)NC(CCO)C2CC2)cnc2sc(-c3cncs3)cc12` (stereo not shown) [Example 39, N-(1-cyclopropyl-3-hydroxypropyl)-4-(isopropylamino)-2-(thiazol-5-yl)thieno[2,3-b]pyridine-5-carboxamide], the pIC50 is 6.26.

In the case of `CC(C)Nc1c(C(=O)N[C@H](C)CCO)cnc2sc(-c3cncs3)cc12` [Example 40, (R)-N-(4-hydroxybutan-2-yl)-4-(isopropylamino)-2-(thiazol-5-yl)thieno[2,3-b]pyridine-5-carboxamide], the pIC50 was 6.90.

Regarding `CC(C)Nc1c(C(=O)NCc2cocn2)cnc2sc(-c3cncs3)cc12` [Example 41, 4-(isopropylamino)-N-(oxazol-4-ylmethyl)-2-(thiazol-5-yl) thieno[2,3-b]pyridine-5-carboxamide], the negative-log IC50 (pIC50) is 7.67.
